Assay results from ChEMBL document CHEMBL3217541, “Optimisation of aqueous solubility in a series of G protein coupled receptor 119 (GPR119) agonists” (Medchemcomm, 2013).
Converted amounts (≈) assume the structure as drawn.

Experiments:
[1] = Chemical stability of the compound at pH 10 at 10 uM after 18 hrs incubation at 65 degC; format: physicochemical; details: buffer
[2] = Chemical stability of the compound at pH 8 at 10 uM after 18 hrs incubation at 65 degC; format: physicochemical; details: buffer
[3] = Chemical stability of the compound at pH 6 at 10 uM after 18 hrs incubation at 65 degC; format: physicochemical; details: buffer
[4] = Chemical stability of the compound at pH 4 at 10 uM after 18 hrs incubation at 65 degC; format: physicochemical; details: buffer
[5] = Chemical stability of the compound at pH 1 at 10 uM after 18 hrs incubation at 65 degC; format: physicochemical; details: buffer
physchem [6] = details: aqueous phosphate buffer, pH 7.4
in vitro = details: human, liver microsomes
[7] = molecular target: Voltage-gated inwardly rectifying potassium channel KCNH2 (Homo sapiens, UniProt Q12809); test: Inhibition of human ERG
Chain of Voltage-gated inwardly rectifying potassium channel KCNH2 (Q12809 whole entry): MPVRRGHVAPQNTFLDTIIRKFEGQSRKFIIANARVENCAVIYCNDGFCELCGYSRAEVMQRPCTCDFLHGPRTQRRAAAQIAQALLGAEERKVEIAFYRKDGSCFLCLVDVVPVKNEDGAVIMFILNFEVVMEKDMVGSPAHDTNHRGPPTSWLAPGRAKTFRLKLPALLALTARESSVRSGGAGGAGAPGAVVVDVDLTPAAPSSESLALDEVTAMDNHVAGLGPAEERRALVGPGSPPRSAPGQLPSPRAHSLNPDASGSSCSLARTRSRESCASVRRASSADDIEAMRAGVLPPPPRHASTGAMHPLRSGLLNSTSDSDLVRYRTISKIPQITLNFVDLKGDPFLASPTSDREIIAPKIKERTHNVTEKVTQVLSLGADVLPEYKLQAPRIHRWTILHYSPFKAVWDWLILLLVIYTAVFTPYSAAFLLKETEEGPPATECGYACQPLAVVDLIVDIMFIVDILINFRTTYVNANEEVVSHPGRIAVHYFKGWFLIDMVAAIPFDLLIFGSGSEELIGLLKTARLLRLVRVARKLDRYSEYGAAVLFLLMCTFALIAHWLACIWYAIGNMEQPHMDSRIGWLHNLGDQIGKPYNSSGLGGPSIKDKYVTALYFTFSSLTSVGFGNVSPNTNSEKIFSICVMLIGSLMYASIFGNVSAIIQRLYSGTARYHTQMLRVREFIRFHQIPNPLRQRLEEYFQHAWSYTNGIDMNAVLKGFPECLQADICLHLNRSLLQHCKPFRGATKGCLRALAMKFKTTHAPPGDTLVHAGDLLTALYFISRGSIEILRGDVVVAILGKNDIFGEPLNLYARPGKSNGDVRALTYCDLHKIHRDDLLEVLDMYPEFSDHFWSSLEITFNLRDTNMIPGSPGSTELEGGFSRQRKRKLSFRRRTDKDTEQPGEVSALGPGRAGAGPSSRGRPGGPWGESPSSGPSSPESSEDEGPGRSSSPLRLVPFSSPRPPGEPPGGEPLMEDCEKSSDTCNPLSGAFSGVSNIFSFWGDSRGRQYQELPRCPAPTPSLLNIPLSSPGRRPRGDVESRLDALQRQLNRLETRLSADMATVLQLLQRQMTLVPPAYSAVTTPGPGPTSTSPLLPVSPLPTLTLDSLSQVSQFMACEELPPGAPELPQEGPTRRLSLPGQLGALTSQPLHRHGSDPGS

Cytochrome P450 2D6 = Cytochrome P450 2D6 (Homo sapiens, UniProt P10635); test: Inhibition of CYP2D6 (unknown origin); format: ADME
Chain of Cytochrome P450 2D6 (P10635 whole entry): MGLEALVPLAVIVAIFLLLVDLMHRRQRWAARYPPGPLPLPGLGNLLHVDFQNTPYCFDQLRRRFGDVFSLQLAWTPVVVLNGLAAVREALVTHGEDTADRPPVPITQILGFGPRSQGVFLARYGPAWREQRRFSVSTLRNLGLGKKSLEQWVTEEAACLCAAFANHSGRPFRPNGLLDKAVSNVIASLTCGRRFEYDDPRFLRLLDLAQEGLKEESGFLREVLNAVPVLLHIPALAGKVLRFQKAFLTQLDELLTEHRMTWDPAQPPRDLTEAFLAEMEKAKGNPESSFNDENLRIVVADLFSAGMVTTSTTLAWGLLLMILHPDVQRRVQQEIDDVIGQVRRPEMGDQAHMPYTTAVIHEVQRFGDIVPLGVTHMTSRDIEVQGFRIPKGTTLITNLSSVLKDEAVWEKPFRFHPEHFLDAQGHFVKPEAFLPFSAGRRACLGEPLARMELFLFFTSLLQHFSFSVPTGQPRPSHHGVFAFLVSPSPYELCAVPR

Cytochrome P450 3A4 = Cytochrome P450 3A4 (Homo sapiens, UniProt P08684); test: Inhibition of CYP3A4 (unknown origin); format: ADME
Chain of Cytochrome P450 3A4 (P08684 whole entry): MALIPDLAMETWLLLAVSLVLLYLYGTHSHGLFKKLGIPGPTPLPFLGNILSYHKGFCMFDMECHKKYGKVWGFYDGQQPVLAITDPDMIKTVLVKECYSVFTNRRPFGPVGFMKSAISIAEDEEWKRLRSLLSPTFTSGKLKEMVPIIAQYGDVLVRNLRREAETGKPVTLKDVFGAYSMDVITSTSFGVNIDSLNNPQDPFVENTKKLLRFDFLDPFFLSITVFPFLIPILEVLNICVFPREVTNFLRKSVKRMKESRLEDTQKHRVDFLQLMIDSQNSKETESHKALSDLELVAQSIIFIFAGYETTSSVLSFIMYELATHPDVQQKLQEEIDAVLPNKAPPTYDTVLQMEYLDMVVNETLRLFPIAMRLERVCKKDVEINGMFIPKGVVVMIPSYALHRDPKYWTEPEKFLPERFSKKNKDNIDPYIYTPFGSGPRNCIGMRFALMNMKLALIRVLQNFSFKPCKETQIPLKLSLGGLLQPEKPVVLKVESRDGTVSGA

Cytochrome P450 2C9 = Cytochrome P450 2C9 (Homo sapiens, UniProt P11712); test: Inhibition of CYP2C9 (unknown origin); format: ADME
Chain of Cytochrome P450 2C9 (P11712 whole entry): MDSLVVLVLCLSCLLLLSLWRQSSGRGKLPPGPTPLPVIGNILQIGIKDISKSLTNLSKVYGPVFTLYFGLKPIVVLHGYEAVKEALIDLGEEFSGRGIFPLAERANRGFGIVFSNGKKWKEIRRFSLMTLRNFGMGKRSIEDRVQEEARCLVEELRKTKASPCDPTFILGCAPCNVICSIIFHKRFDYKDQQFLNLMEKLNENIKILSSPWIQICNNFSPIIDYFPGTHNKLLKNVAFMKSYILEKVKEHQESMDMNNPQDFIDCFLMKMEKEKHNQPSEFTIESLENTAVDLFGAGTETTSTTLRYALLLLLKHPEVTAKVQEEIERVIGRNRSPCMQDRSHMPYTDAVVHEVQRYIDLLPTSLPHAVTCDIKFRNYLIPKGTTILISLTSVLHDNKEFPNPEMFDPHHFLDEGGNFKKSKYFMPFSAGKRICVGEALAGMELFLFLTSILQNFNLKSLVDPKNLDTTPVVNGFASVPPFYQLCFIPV

Cytochrome P450 2C19 = Cytochrome P450 2C19 (Homo sapiens, UniProt P33261); test: Inhibition of CYP2C19 (unknown origin); format: ADME
Chain of Cytochrome P450 2C19 (P33261 whole entry): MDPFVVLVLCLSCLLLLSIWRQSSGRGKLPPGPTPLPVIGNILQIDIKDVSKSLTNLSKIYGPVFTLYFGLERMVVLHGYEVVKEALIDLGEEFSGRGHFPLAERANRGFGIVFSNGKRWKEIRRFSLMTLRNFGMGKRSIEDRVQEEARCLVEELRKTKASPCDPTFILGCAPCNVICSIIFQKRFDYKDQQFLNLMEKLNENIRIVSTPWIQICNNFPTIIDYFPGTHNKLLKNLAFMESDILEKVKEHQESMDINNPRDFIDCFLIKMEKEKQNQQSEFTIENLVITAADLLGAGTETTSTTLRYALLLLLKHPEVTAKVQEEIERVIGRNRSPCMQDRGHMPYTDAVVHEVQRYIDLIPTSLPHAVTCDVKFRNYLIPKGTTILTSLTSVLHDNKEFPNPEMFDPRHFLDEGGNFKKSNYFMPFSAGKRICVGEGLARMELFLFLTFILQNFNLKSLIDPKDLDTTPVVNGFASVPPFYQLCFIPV

Cytochrome P450 1A2 = molecular target: T1, Cytochrome P450 1A2 (Homo sapiens, UniProt P05177); test: Inhibition of CYP1A2 (unknown origin); format: ADME
T1 sequence (P05177 whole entry): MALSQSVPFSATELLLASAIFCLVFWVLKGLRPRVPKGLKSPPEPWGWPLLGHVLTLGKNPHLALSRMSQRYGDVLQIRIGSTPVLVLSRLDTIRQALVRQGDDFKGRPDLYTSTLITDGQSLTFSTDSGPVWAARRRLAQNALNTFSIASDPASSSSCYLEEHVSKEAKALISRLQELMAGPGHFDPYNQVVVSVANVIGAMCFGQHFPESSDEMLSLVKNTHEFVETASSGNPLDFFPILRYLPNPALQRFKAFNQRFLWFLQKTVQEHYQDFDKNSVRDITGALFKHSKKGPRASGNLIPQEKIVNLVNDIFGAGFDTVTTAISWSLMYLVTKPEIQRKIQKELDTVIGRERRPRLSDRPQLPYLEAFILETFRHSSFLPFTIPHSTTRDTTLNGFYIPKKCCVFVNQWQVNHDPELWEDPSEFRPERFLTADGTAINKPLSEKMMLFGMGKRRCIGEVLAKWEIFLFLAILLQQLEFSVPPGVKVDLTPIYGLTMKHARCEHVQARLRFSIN

[8] = molecular target: T2, Glucose-dependent insulinotropic receptor (Mus musculus, UniProt Q7TQP3); test: Agonist activity at mouse GPR119 transfected in HEK293 cells assessed as cAMP accumulation after 45 mins incubation by HTRF assay; format: functional, cell-based
T2 sequence (Q7TQP3 whole entry): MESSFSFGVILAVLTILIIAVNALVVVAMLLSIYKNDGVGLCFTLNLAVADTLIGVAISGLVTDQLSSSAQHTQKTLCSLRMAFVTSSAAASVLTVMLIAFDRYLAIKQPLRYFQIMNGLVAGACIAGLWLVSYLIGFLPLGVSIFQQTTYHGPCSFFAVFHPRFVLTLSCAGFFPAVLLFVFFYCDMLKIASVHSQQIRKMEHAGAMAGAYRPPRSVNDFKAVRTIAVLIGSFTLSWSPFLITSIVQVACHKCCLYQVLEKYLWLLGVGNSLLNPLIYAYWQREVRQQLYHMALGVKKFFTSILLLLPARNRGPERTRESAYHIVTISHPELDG

[9] = molecular target: T3, Glucose-dependent insulinotropic receptor (Homo sapiens, UniProt Q8TDV5); test: Agonist activity at human GPR119 transfected in HEK293 cells assessed as cAMP accumulation after 45 mins incubation by HTRF assay; format: functional, cell-based
T3 sequence (Q8TDV5 whole entry): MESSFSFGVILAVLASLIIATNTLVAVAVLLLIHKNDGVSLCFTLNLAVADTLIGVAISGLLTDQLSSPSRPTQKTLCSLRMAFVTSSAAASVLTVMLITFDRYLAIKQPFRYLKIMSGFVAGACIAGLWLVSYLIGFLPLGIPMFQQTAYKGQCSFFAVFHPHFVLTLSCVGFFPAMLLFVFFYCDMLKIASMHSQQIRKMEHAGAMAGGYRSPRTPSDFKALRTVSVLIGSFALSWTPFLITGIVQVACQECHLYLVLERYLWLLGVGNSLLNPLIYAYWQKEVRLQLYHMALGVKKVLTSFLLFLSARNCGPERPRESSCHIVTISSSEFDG

physchem [10] = details: octanol/phosphate buffer, pH 7.4
[11] = Apparent permeability across basolateral to apical side of human Caco2 cells; format: ADME, cell-based; details: Caco-2
[12] = Apparent permeability across apical to basolateral side of human Caco2 cells; format: ADME, cell-based; details: Caco-2
[13] = Fraction unbound in mouse plasma; format: ADME, cell-free
[14] = Fraction unbound in rat plasma; format: ADME, cell-free

| Compound | solubility at 24 h (physchem [6]) [µM] | microsomal CLint (in vitro) [µL/min/mg] | EC50 [8] [nM] | EC50 [9] [nM] | logD (physchem [10]) | also measured |
| --- | --- | --- | --- | --- | --- | --- |
| CC(C)(C)OC(=O)N1CCN(c2ncc(OCc3ccc(S(C)(=O)=O)cc3)cn2)CC1 | 0.03 (≈ 0.0135 µg/mL) | – | – | – | – | half-life at 10 µM [1]: < 0.144 h; half-life at 10 µM [2]: 2.64 h; half-life at 10 µM [3]: 2.88 h; half-life at 10 µM [4]: 1.44 h; half-life at 10 µM [5]: < 1.8 h |
| C[C@@H]1CN(C(=O)OC(C)(C)C)CCN1c1ncc(OCc2ccncc2C#N)cn1 | – | 43 | – | – | – | – |
| CC(C)c1nc(N2CCN(c3ncc(OCc4ccncc4C#N)cn3)[C@H](C)C2)no1 | 6 (≈ 2.52 µg/mL) | 23 | – | – | – | INH [7]: 10 µM; INH (Cytochrome P450 2D6): > 25 µM; INH (Cytochrome P450 3A4): > 25 µM; INH (Cytochrome P450 2C9): > 25 µM; INH (Cytochrome P450 2C19): > 25 µM; INH (Cytochrome P450 1A2): > 25 µM |
| C[C@@H]1CN(c2nnc(C(F)(F)F)o2)CCN1c1ncc(OCc2ccncc2C#N)cn1 | – | – | – | – | – | half-life at 10 µM [1]: 13.4 h; half-life at 10 µM [2]: > 240 h; half-life at 10 µM [3]: > 240 h; half-life at 10 µM [4]: > 240 h; half-life at 10 µM [5]: 10.8 h |
| C[C@@H]1CN(c2noc(C3(C)COC3)n2)CCN1c1ncc(OCc2ccncc2C#N)cn1 | 59 (≈ 26.5 µg/mL) | 43 | 100 | 63.1 | 3 | – |
| C[C@@H]1CN(c2noc(C3COCCO3)n2)CCN1c1ncc(OCc2ccncc2C#N)cn1 (some centres undefined) | 30 (≈ 13.9 µg/mL) | 26 | 631 | 100 | 2.3 | – |
| C[C@@H]1CN(c2noc(C(C)(C)O)n2)CCN1c1ncc(OCc2ccncc2C#N)cn1 | 8 (≈ 3.49 µg/mL) | 14 | 631 | 631 | 2.4 | – |
| C[C@@H]1CN(C(=O)OC2(C(F)(F)F)CCOC2)CCN1c1ncc(OCc2ccncc2C#N)cn1 (some centres undefined) | 34 (≈ 16.7 µg/mL) | 107 | – | – | 3.1 | – |
| C[C@@H]1CN(C(=O)OC2(C(F)(F)F)COC2)CCN1c1ncc(OCc2ccncc2C#N)cn1 | 110 (≈ 52.6 µg/mL) | 44 | 158 | 20 | 2.5 | Papp B→A [11]: 9 ×10⁻⁶ cm/s; half-life at 10 µM [1]: 0.96 h; half-life at 10 µM [2]: > 240 h; half-life at 10 µM [3]: > 240 h; half-life at 10 µM [4]: > 240 h; half-life at 10 µM [5]: 9.84 h; INH [7]: 12 µM; INH (Cytochrome P450 2D6): > 25 µM; INH (Cytochrome P450 3A4): > 25 µM; INH (Cytochrome P450 2C9): > 25 µM; INH (Cytochrome P450 2C19): > 25 µM; INH (Cytochrome P450 1A2): > 25 µM; Papp A→B [12]: 16 ×10⁻⁶ cm/s; fraction unbound [13]: 0.081; fraction unbound [14]: 0.047 |
| CC(C)C1(OC(=O)N2CCN(c3ncc(OCc4ccncc4C#N)cn3)[C@H](C)C2)COC1 | – | 308 | 501 | 200 | – | – |
| C[C@@H]1CN(C(=O)OC2(C)COC2)CCN1c1ncc(OCc2ccncc2C#N)cn1 | > 860 | 23 | 631 | 200 | – | – |
| C[C@@H]1CN(C(=O)OC2CCOCC2)CCN1c1ncc(OCc2ccncc2C#N)cn1 | 110 (≈ 48.2 µg/mL) | 37 | > 7940 | 631 | 2.2 | – |
| C[C@@H]1CN(C(=O)OC2COC2)CCN1c1ncc(OCc2ccncc2C#N)cn1 | > 2200 | 5 | – | – | 1.6 | – |
| N#Cc1cnccc1COc1cnc(N2CCN(C(=O)OC3CCOC3)CC2)nc1 (racemic) | 180 (≈ 73.9 µg/mL) | – | – | – | – | – |
